What all share (type): functional
The subject of assay [1] is Streptococcus pyogenes. Nature of the assay: Antibacterial activity against Streptococcus pyogenes by broth dilution method. (In general: In broth dilution the organism is exposed to a series of concentrations in liquid medium.)
In assay [2] the test system is Escherichia coli. Nature of the assay: Antibacterial activity against Escherichia coli by broth dilution method.
Assay [3] deals with Pseudomonas aeruginosa. Kind of assay: Antibacterial activity against Pseudomonas aeruginosa by broth dilution method.
For assay [4], the system named is Candida albicans. Kind of assay: Antifungal activity against Candida albicans by broth dilution method.
Assay [5] deals with Aspergillus clavatus. Kind of assay: Antifungal activity against Aspergillus clavatus by broth dilution method.
Assay [6] has as its system Staphylococcus aureus. Nature of the assay: Antibacterial activity against Staphylococcus aureus by broth dilution method.
The test system of assay [7] is Aspergillus niger. Nature of the assay: Antifungal activity against Aspergillus niger by broth dilution method.

Converted amounts (≈) assume the structure as drawn. The source made the active and inactive calls. The calls are words filed in the database; no cut-off is given here.

A word on the MIC: it is the lowest concentration that inhibits growth of the organism. Higher therefore signals weaker potency. As for `O=C(N/N=C\c1ccc(F)cc1)c1cn(C2CC2)c2cc(Cl)c(F)cc2c1=O`, the MIC in assay [1] was found to be 500 µg/mL (≈ 1240 µM); in assay [2], 500 µg/mL (≈ 1240 µM); in assay [3], 500 µg/mL (≈ 1240 µM); in assay [4], 1000 µg/mL (≈ 2490 µM); in assay [5], 1000 µg/mL (≈ 2490 µM); in assay [6], 500 µg/mL (≈ 1240 µM). Moreover, 1000 µg/mL (≈ 2490 µM) was the least that counted as inhibitory in assay [7] (MIC).

On to `COC1=CC(=O)C[C@@H](C)[C@]12Oc1c(Cl)c(OC)cc(OC)c1C2=O` [GRISEOFULVIN], for which the MIC in assay [4] was 500 µg/mL (≈ 1420 µM); in assay [5], 100 µg/mL (≈ 283 µM); in assay [7], 100 µg/mL (≈ 283 µM).

Regarding `COc1ccc(N2CCN(c3cc4c(cc3F)c(=O)c(C(=O)NN3C(=O)CSC3c3ccc(O)cc3)cn4C3CC3)CC2)cc1` (configuration not stated), the MIC was 500 µg/mL (≈ 794 µM) in assay [1]; 500 µg/mL (≈ 794 µM) in assay [2]; 500 µg/mL (≈ 794 µM) in assay [3]; 1000 µg/mL (≈ 1590 µM) in assay [4]; over 1000 µg/mL in assay [5]; 500 µg/mL (≈ 794 µM) in assay [6]. In assay [7], this molecule came in with a minimum inhibitory concentration (MIC) of 1000 µg/mL (≈ 1590 µM).

In the case of `CC1(C)S[C@@H]2[C@H](NC(=O)[C@H](N)c3ccccc3)C(=O)N2[C@H]1C(=O)O` [AMPICILLIN], the MIC in assay [1] came to 100 µg/mL (≈ 286 µM); in assay [2], 100 µg/mL (≈ 286 µM); in assay [3] it was 100 µg/mL (≈ 286 µM); in assay [6], 250 µg/mL (≈ 715 µM).

Turning to `COc1ccc(N2CCN(c3cc4c(cc3F)c(=O)c(C(=O)N/N=C\c3ccccc3)cn4C3CC3)CC2)cc1`, the MIC in assay [1] is 500 µg/mL (≈ 927 µM); in assay [2], 500 µg/mL (≈ 927 µM); in assay [3], 500 µg/mL (≈ 927 µM); in assay [4], 500 µg/mL (≈ 927 µM); in assay [5], 500 µg/mL (≈ 927 µM); in assay [6] it was 1000 µg/mL (≈ 1850 µM). For the same molecule, the MIC in assay [7] was 500 µg/mL (≈ 927 µM).

As to `COc1ccc(/C=N\NC(=O)c2cn(C3CC3)c3cc(N4CCN(c5ccc(OC)cc5)CC4)c(F)cc3c2=O)cc1`, the MIC in assay [1] is 100 µg/mL (≈ 176 µM); in assay [2], 100 µg/mL (≈ 176 µM); in assay [3], 200 µg/mL (≈ 351 µM); in assay [4], 500 µg/mL (≈ 878 µM); in assay [5], over 1000 µg/mL; in assay [6], 500 µg/mL (≈ 878 µM). The same molecule yielded an MIC in assay [7] of over 1000 µg/mL.

For the molecule `COc1ccc(N2CCN(c3cc4c(cc3F)c(=O)c(C(=O)NN3C(=O)CSC3c3ccc(O)c(OC)c3)cn4C3CC3)CC2)cc1` (configuration not stated), the MIC in assay [1] turned out to be 1000 µg/mL (≈ 1520 µM); in assay [2], 1000 µg/mL (≈ 1520 µM); in assay [3], 1000 µg/mL (≈ 1520 µM); in assay [4], 500 µg/mL (≈ 758 µM); in assay [5], 1000 µg/mL (≈ 1520 µM); in assay [6] it was 1000 µg/mL (≈ 1520 µM). In assay [7], this molecule displayed an MIC of over 1000 µg/mL.

Turning to `COc1ccc(/C=N\NC(=O)c2cn(C3CC3)c3cc(Cl)c(F)cc3c2=O)cc1`, the minimal inhibitory concentration (MIC) in assay [1] was 1000 µg/mL (≈ 2420 µM); in assay [2], 200 µg/mL (≈ 483 µM); in assay [3], 500 µg/mL (≈ 1210 µM); in assay [4] it was 500 µg/mL (≈ 1210 µM); in assay [5] it was over 1000 µg/mL; in assay [6] it was 500 µg/mL (≈ 1210 µM). Besides, the MIC in assay [7] was over 1000 µg/mL.

For the molecule `O=C(O)c1cn(C2CC2)c2cc(N3CCNCC3)c(F)cc2c1=O` [CIPROFLOXACIN], the MIC in assay [1] turned out to be 50 µg/mL (≈ 151 µM); in assay [2], 25 µg/mL (≈ 75.4 µM); in assay [6], 50 µg/mL (≈ 151 µM).

Take GENTAMICIN: the MIC worked out at 0.5 µg/mL in assay [1], 0.05 µg/mL in assay [2], 1 µg/mL in assay [3] and 0.25 µg/mL in assay [6].

Turning to `O=C(Cl)c1cn(C2CC2)c2cc(Cl)c(F)cc2c1=O`, the outcome in assay [1], in assay [2], in assay [3], in assay [4] and in assay [6] was Active.

Turning to `O=C(N[C@H](CO)[C@H](O)c1ccc([N+](=O)[O-])cc1)C(Cl)Cl` [CHLORAMPHENICOL], the MIC in assay [1], in assay [2], in assay [3] and in assay [6] was 50 µg/mL (≈ 155 µM) throughout.

NYSTATIN: the MIC in assay [4], in assay [5] and in assay [7] was 100 µg/mL in each case.

`CCn1cc(C(=O)O)c(=O)c2cc(F)c(N3CCNCC3)cc21` [NORFLOXACIN]: the MIC in assay [1], in assay [2], in assay [3] and in assay [6] was 10 µg/mL (≈ 31.3 µM) in each case.

The record behind these values is ChEMBL document CHEMBL3046517, “Synthesis and antimicrobial study of fluoroquinolone-based 4-thiazolidinones” (2010).
